# Measurements reported in patent US20130344139A1, “METHOD OF REDUCING CONTACT LENS INTOLERANCE WITH NON-DRYING ANTIHISTAMINES” (priority 2005, published 2013).
# Tests used:
# [1] = biological target: endogenous M3 receptor (1321N1) (Homo sapiens, UniProt P20309)
# [2] = biological target: T1, human muscarinic receptor M5 (Homo sapiens, UniProt P08912); assay: Muscarinic receptor potency, C6 cells expressing recombinant M5
# T1 sequence (P08912 1-532): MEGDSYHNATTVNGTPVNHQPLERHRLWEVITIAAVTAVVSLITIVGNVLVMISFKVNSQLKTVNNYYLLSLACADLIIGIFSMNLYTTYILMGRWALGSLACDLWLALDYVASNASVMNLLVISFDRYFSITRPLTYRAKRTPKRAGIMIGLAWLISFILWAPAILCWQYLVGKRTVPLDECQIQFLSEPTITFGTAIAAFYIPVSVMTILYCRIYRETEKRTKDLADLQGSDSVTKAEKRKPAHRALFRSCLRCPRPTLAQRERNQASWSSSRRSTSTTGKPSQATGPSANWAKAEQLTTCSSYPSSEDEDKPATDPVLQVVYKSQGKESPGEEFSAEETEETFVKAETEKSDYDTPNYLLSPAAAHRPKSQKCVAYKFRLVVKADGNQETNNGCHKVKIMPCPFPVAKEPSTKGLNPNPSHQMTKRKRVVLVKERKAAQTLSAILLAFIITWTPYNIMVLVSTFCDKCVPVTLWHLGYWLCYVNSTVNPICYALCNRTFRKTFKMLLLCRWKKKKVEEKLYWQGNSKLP
# From the text: (§1) C6 rat glioma and CHO-K1 (Chinese hamster ovary) cells were obtained from the American Type Culture Collection (ATCC, Manassas, Va.). […] Recombinant cell lines stably expressing independently each of the five human muscarinic receptors (M1, M2, M3, M4 or M5) were established by transfecting C6 rat glioma cells with the plasmid pcDNA3.1(+) containing the DNA sequence encoding the muscarinic receptor subtypes. Moreover, two of the muscarinic receptor subtypes (M2 and M4) that signal through the Gαi protein were expressed in C6 cells that also expressed a functional chimeric Gq/i protein allowing these receptors to signal via calcium mobilization.
# [3] = tested on: C57BL6 mice; assay: Effect of topical epinastine and olopatadine on tear volume in mice (phenol red cotton thread); assay type: in vivo, mouse; conditions: for tear volume compared with untreated group: olopatadine: 15 min and 45 min (P<0.05); for overall effect on tear volume / tear secretion (conclusion): topical, mice
# Experimental: After two and four days of treatment, tear volume measurements were made with a phenol red impregnated cotton thread (Zone-Quick, Menicon, San Mateo, Calif.) 15, 45, 90, 120 and 240 min after the last instillation of the drug. A baseline tear measurement was performed before initiation of drug therapy. The untreated group had tear volume measurements done at the same time points. The length of tear wetting on the cotton thread was measured with a Nikon SMZ1500 microscope using MetaVue© software. A standard curve of cotton thread uptake was made using a glass micropipette with a known volume of a basic solution. Mouse tear volumes were calculated using regression analysis calculated by Microsoft® Excel. ANOVA with Tukey's Multiple Comparison Test was used for statistical analysis using GraphPad Prism® software.
# [4] = biological target: T2, human muscarinic receptor M2 (Homo sapiens, UniProt P08172); assay: Muscarinic receptor potency, C6 cells expressing recombinant M2 (chimeric Gq/i)
# T2 sequence (P08172 1-466): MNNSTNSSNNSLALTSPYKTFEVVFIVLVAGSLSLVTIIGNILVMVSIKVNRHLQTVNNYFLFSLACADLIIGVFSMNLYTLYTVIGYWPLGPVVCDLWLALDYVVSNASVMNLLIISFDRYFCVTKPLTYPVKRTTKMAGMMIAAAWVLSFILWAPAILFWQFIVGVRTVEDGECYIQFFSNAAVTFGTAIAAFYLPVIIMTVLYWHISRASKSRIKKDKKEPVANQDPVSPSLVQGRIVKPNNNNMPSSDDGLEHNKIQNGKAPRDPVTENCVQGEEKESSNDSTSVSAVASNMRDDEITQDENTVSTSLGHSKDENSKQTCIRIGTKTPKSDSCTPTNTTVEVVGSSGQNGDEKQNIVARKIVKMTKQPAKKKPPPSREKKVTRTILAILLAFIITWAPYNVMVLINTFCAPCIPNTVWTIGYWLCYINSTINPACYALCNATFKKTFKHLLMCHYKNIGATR
# From the text: as §1
# [5] = biological target: human muscarinic receptor M3 (Homo sapiens, UniProt P20309); assay: Muscarinic receptor potency, C6 cells expressing recombinant M3
# human muscarinic receptor M3, sequence (P20309 whole entry): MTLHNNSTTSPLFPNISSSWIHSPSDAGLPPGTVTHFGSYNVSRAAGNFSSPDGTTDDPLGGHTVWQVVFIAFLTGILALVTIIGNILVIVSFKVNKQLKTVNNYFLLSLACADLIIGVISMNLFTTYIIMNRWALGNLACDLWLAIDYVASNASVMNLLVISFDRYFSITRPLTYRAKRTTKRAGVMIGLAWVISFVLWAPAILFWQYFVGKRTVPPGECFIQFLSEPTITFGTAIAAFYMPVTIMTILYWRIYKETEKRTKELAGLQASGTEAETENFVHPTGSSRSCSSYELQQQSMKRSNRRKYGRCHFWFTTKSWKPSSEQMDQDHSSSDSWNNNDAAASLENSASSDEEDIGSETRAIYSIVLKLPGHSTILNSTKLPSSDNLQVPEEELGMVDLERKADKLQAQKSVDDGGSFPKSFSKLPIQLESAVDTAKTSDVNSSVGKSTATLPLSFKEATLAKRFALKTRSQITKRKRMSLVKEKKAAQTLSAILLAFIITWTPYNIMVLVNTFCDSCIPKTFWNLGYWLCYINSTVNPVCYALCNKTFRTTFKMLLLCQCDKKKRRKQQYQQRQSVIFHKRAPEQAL
# From the text: as §1
# [6] = biological target: T3, human muscarinic receptor M4 (Homo sapiens, UniProt P08173); assay: Muscarinic receptor potency, C6 cells expressing recombinant M4 (chimeric Gq/i)
# T3 sequence (P08173 1-479): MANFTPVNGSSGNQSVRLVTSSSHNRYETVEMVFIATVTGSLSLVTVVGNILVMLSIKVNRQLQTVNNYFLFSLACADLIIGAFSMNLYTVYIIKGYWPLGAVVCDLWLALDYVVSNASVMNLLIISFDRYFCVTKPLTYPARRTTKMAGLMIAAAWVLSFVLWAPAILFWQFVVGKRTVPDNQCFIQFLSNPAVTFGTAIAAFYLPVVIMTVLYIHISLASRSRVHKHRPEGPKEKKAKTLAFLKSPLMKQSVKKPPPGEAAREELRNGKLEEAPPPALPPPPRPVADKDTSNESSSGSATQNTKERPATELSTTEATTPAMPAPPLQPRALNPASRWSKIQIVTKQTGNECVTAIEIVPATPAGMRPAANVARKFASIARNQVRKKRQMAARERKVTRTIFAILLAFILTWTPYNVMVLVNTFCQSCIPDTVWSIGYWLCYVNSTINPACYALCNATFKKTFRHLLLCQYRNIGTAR
# From the text: as §1
# [7] = tested on: muscarinic receptors (M1-M5); assay: Muscarinic receptor signaling, statements for M1-M5 together; conditions: for inhibition of muscarinic receptor signaling (in words): stimulation with 500 nM acetylcholine; for IC50 at muscarinic receptors (in words): lack of anticholinergic properties
# From the text: as §1
# [8] = biological target: T4, human muscarinic receptor M1 (Homo sapiens, UniProt P11229); assay: cell-based
# T4 sequence (P11229 1-460): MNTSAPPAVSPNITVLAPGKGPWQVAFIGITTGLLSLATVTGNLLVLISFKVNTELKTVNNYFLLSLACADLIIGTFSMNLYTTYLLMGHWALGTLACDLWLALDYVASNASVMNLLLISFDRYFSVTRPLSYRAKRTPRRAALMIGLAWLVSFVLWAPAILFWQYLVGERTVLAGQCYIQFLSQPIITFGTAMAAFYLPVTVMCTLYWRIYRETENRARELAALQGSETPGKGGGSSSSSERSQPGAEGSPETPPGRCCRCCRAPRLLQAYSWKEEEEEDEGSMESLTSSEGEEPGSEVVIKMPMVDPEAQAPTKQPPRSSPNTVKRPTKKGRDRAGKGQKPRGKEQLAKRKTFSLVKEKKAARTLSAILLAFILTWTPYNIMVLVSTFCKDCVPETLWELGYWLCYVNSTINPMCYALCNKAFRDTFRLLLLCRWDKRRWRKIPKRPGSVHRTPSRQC
# From the text: as §1
# [9] = tested on: allergic conjunctivitis; conditions: in vivo; cited from earlier work
# [10] = tested on: contact lens-wearing subjects; assay: Effect of topical epinastine on contact lens-wearing, contact lens intolerant subjects; assay type: in vivo
# From the text: This was a multi-center, open-label, randomized study that compared (a) epinastine 0.05% ophthalmic solution (ELESTAT®, Inspire Pharmaceuticals, Inc., Durham, N.C.) plus rewetting drops (Walgreens Rewetting Drops, Walgreens, Deerfield Ill.) with (b) rewetting drops alone. The subjects wore contact lenses, but were contact lens intolerant. The study started during the spring allergy season because seasonal allergic conjunctivitis may exacerbate the symptoms of contact lens intolerance.
# 146 subjects had 3 clinic visits over a 2-week period. The first was the screening visit to determine eligibility. Following that, subjects completed a daily diary card to assess compliance and capture baseline values during a 5-7 day run-in period with rewetting drops. At the next visit, each subject was dispensed a new pair of contact lenses and randomly assigned to receive either (a) epinastine 0.05% ophthalmic solution BID (twice a day) plus rewetting drops (75 subjects), or (b) rewetting drops only as needed, but at least twice a day (71 subjects), for a 5-7 day treatment period. During the treatment period, subjects recorded the length of time that contact lens wear was comfortable, the total time of wear, ocular itch, overall ocular comfort, and use of rewetting drops. Subjects receiving epinastine were instructed to remove contact lenses prior to instillation, allow at least 10 minutes before reinsertion, and allow 15 minutes before administering rewetting drops. Each instillation was to occur 8-12 hours after the previous one, with the evening application coming after removal of lenses for the day. The final visit came after the 5-7 day treatment period and allowed collection of the data and unused study medication.
# Ocular comfort was scored on a scale of 0-4, with 0=very comfortable, 1=somewhat comfortable, 2=mildly uncomfortable, 3=moderately uncomfortable, and 4=very uncomfortable.
# Ocular itch was scored on a scale of 0-4, with 0=none, 1=mild, 2=moderate, 3=severe, and 4=extremely severe.
# Baseline values presented are the average of all entries recorded during the run-in phase of the study. P values are based on an ANCOVA model that included the treatment, the site, and the baseline value. Values for Day 1 are not included in the analysis for contact lens wear time, ocular itching, ocular comfort, and rewetting drop usage because they were a mixture of run-in and treatment period values.
# [11] = biological target: human histamine H1 receptor (Homo sapiens, UniProt P35367); assay: H1 receptor potency: inhibition of histamine stimulation in CHO-K1 H1 cells
# human histamine H1 receptor, sequence (P35367 whole entry): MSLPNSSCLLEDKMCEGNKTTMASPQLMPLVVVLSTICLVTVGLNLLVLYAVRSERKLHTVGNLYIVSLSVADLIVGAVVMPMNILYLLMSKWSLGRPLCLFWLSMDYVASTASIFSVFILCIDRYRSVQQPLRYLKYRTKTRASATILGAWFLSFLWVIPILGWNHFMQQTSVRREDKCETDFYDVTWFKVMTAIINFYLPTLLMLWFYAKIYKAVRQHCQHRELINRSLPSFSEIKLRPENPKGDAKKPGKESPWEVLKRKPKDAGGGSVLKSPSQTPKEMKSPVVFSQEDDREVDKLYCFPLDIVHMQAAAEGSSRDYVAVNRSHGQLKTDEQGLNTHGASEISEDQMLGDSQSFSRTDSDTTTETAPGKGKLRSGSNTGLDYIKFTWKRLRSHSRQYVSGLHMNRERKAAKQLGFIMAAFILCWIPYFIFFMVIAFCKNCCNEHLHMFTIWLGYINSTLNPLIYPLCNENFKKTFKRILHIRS
# From the text: as §1
# Dose response curves were generated.
# [12] = tested on: human subjects; assay: Ocular drying effect of topical epinastine and systemic loratadine, crossover study (fluorophotometry, staining, TFBUT); conditions: after 4 days of treatment
# [13] = tested on: healthy individuals; conditions: systemic antihistamines; increased corneal and conjunctival staining, decreased TFBUT, increased ocular discomfort; cited from earlier work
# [14] = average during treatment period
# endogenous M3 receptor (1321N1), sequence (P20309 whole entry): as the sequence (P20309 whole entry) above
smiles,measurement,setting,value
CN(C)CC/C=C1/c2ccccc2COc2ccc(CC(=O)O)cc21 [olopatadine],IC50,[1],41.9 µM
same,IC50,[2],10.7 µM
same,tear volume compared with untreated group,[3]; after 2 days of treatment,untreated group also had a statistically higher tear volume than the olopatadine group
same,overall effect on tear volume / tear secretion (conclusion),[3],significant decrease in tear volume
same,IC50,[4],7.67 µM
same,IC50,[5],7.98 µM
same,IC50,[6],13.1 µM
same,inhibition of muscarinic receptor signaling (in words),[7],inhibited muscarinic receptor signaling in a dose-dependent manner
same,IC50,[8],1.74 µM
"NC1=NCC2c3ccccc3Cc3ccccc3N12 (stereo not shown) [epinastine, 3-amino-9,13b-dihydro-1H-dibenz[c,f]-imidazo[5,1-a]azepine]",redness and itching associated with allergic conjunctivitis,[9],reduces redness and itching
same,mean tear volume compared with olopatadine-treated group,"[3]; after 2 days of treatment, 1 μL twice a day on ocular surface, 15, 45, 90 and 240 minutes, significant at 45 min (P<0.001)",higher mean tear volumes
same,tear volume compared with untreated group,[3]; after 2 days of treatment,"increased production of tears over the untreated group, but the difference was not statistically significant"
same,tear volume compared with olopatadine,"[3]; after 4 days of treatment, significant at 45 min (p<0.05)",volumes were higher at all time points
same,overall effect on tear volume / tear secretion (conclusion),[3],"not found to inhibit tear secretion, but rather increased tear production"
same,"Frequency of rewetting drop use, mean change from baseline",[10]; [14],−0.55
same,"Total contact lens wear, mean change from baseline",[10]; [14],0.35 h
same,"Comfortable contact lens wear, mean change from baseline",[10]; average during treatment period (5-7 days),1.33 h
same,average use of rewetting drops over the entire treatment period,[10]; in vivo,2.79 uses per day
same,mean overall eye comfort over the entire treatment period,"[10]; score 0-4 (0=very comfortable, 4=very uncomfortable)",1.43
same,"Overall eye comfort, mean change from baseline","[10]; score 0-4 (0=very comfortable, 4=very uncomfortable), average during treatment period",−0.48
same,average ocular itch score over the entire treatment period,[10]; score on a scale of 0-4,1.11
same,"Ocular itch, mean change from baseline","[10]; score on a scale of 0-4, average during treatment period",−0.54
same,average total wearing time over the treatment period,[10]; treatment period 5-7 days,13.22 h
same,comfortable wear time averaged over the treatment period,[10]; treatment period 5-7 days,9.21 h
same,IC50 at muscarinic receptors (in words),[7],could not be calculated
same,IC50,[11],0.019 ± 0.003 µM
CCOC(=O)N1CCC(=C2c3ccc(Cl)cc3CCc3cccnc32)CC1 [loratadine],"corneal and conjunctival staining, increase",[12],22%
same,"mean TFBUT (tear film break-up time), decrease",[12],22%
same,"tear flow, decrease",[12],35%
same,"tear volume, decrease",[12],34%
same,signs and symptoms associated with ocular dryness,[13],induced signs and symptoms associated with ocular dryness
O=C(O)COCCN1CCN(C(c2ccccc2)c2ccc(Cl)cc2)CC1 (stereo not shown) [cetirizine],signs and symptoms associated with ocular dryness,[13],induced signs and symptoms associated with ocular dryness
same,IC50 at muscarinic receptors (in words),[7],could not be calculated
CN1CCC(=C2c3ccccc3CC(=O)c3sccc32)CC1 [ketotifen],IC50,[2],0.138 µM
same,IC50,[4],0.209 µM
same,IC50,[6],0.561 µM
CN1CCCC(n2nc(Cc3ccc(Cl)cc3)c3ccccc3c2=O)CC1 (stereo not shown) [azelastine],IC50,[1],10.2 µM
same,IC50,[2],3.26 µM
same,IC50,[5],16.8 µM
same,IC50,[6],8.11 µM
same,inhibition of muscarinic receptor signaling (in words),[7],inhibited muscarinic receptor signaling in a dose-dependent manner
CCOCCn1c(C2CCN(CCc3ccc(C(C)(C)C(=O)O)cc3)CC2)nc2ccccc21 [bilastine],IC50 at muscarinic receptors (in words),[7],could not be calculated
same,IC50,[11],0.165 ± 0.044 µM
